We go through twelve molecules from PubChem BioAssay (NCI).

Some test systems named below: HOP-62 NSCLC; CAKI-1 renal; M14 melanoma; EKVX NSCLC; NCI-H460 lung; TK-10 renal; SK-MEL-28 melanoma; SW-620 colon; 786-0 renal; SF-295 CNS.
Common to all, as to assay: NCI-60 cell line screen, 48 h

Molecules are shown by their SMILES. Values joined by “and” are separate entries in the source; they are usually repeats but may differ in a detail not shown here. Identical values can stand only once.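 Tested at 5 concentrations; 48 h exposure; 96-well plates; endpoints linearly interpolated, else capped at highest concentration. Abbreviation: GI50, concentration required for 50% inhibition of growth. At the TGI there is no net growth.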

On to `COC(=O)[C@]12CC[C@@H](C)[C@H](C)[C@@H]1C1=CC[C@@H]3[C@@]4(C)C/C(=N\O)[C@H](O)[C@@]5(C)COC(=C45)C[C@@]3(C)[C@]1(C)CC2`, for which the GI50 in the assay with HOP-62 NSCLC is 12.3 µM; in the assay on CAKI-1 renal, 11.2 µM; in the assay with M14 melanoma, 14.2 µM; in the assay on EKVX NSCLC it was 10.3 µM; in the assay with NCI-H460 lung, 3.29 µM; in the assay on TK-10 renal, 18.3 µM. In addition, the GI50 in the assay on SK-MEL-28 melanoma was 15 µM; with SW-620 colon, 8.42 µM; in the assay with 786-0 renal it was 1.76 µM; in the assay on SF-295 CNS, 4.82 µM. For the same molecule, the TGI amounted to 26.3 µM in the assay on HOP-62 NSCLC; 24.7 µM in the assay on CAKI-1 renal; 27.7 µM in the assay on M14 melanoma; 24.3 µM with EKVX NSCLC; 10.7 µM in the assay on NCI-H460 lung; 33.9 µM with TK-10 renal. The TGI is 33.7 µM with SK-MEL-28 melanoma, 21.9 µM in the assay on SW-620 colon, 3.26 µM in the assay on 786-0 renal and 17.1 µM in the assay on SF-295 CNS.
With `O=C1/C(=C/c2ccccc2)CNC/C1=C\c1ccccc1`, the TGI came to 7.46 µM with HOP-62 NSCLC; 17.6 µM with CAKI-1 renal; 3.56 µM in the assay with M14 melanoma; 16.5 µM with EKVX NSCLC; 3.08 µM in the assay on NCI-H460 lung; 7.61 µM in the assay with TK-10 renal. Besides, the TGI in the assay on SK-MEL-28 melanoma amounted to 3.9 µM; in the assay with SW-620 colon, 2.11 µM; with 786-0 renal it was 2.93 µM; in the assay on SF-295 CNS, 5.25 µM.
Consider `COC12C=C(C)C(CC1)CC2C(=O)O` (stereo not drawn), for which the TGI with HOP-62 NSCLC, with CAKI-1 renal, with M14 melanoma, in the assay on EKVX NSCLC, with NCI-H460 lung and with TK-10 renal was more than 100 µM throughout. In addition, the TGI in the assay on SK-MEL-28 melanoma, with SW-620 colon, with 786-0 renal and in the assay on SF-295 CNS was more than 100 µM in each case.
Consider `CC1=NN(C(=O)Nc2ccccc2)C(=O)C2CCC(=O)N12` (stereo not drawn), for which the TGI with HOP-62 NSCLC, in the assay with CAKI-1 renal, with M14 melanoma, in the assay with EKVX NSCLC, in the assay on NCI-H460 lung and with TK-10 renal was more than 100 µM each time. The TGI in the assay with SK-MEL-28 melanoma, in the assay on SW-620 colon, with 786-0 renal and with SF-295 CNS was more than 100 µM in each case.
With `CC1=CC(=Nc2ccc(N(CCCl)CCCl)cc2)C=C(C)C1=O`, the GI50 was 1.1 µM in the assay with HOP-62 NSCLC; 0.116 µM in the assay with CAKI-1 renal; 0.603 µM in the assay with M14 melanoma; 3.31 µM with EKVX NSCLC; 0.181 µM with NCI-H460 lung; 1.94 µM with TK-10 renal. Also, the GI50 in the assay with SK-MEL-28 melanoma is 2.48 µM; in the assay on SW-620 colon, 0.816 µM; with 786-0 renal it was 0.457 µM; in the assay on SF-295 CNS it was 0.626 µM. The TGI in the assay with HOP-62 NSCLC was determined as 7.37 µM; with CAKI-1 renal, 1.08 µM; with M14 melanoma, 3.98 µM; in the assay with EKVX NSCLC it was 35 µM; in the assay with NCI-H460 lung, 1.96 µM; with TK-10 renal, 5.55 µM. Also, the TGI with SK-MEL-28 melanoma was determined as 10.1 µM; in the assay on SW-620 colon it was 4.6 µM; with 786-0 renal it was 2.39 µM; with SF-295 CNS, 22.6 µM.
On to `O=c1/c(=C/c2ccco2)sc2nc3ccccc3n12`, for which the TGI in the assay with HOP-62 NSCLC, in the assay on CAKI-1 renal, in the assay with M14 melanoma, with EKVX NSCLC, with NCI-H460 lung and with TK-10 renal was more than 100 µM throughout. For the same molecule, the TGI in the assay with SK-MEL-28 melanoma, with SW-620 colon, in the assay on 786-0 renal and in the assay on SF-295 CNS was more than 100 µM each time. The GI50 is more than 100 µM in the assay with CAKI-1 renal; more than 100 µM in the assay on M14 melanoma; more than 10 µM in the assay on EKVX NSCLC; more than 100 µM in the assay on NCI-H460 lung; more than 10 µM with TK-10 renal; more than 100 µM in the assay on SK-MEL-28 melanoma. The GI50 with SW-620 colon, in the assay on 786-0 renal and with SF-295 CNS was more than 100 µM in each case.
In the case of `O=C(/C=C/c1c(O)ccc2ccccc12)c1cccc(O)c1`, the TGI in the assay on HOP-62 NSCLC, with CAKI-1 renal, with M14 melanoma, in the assay on EKVX NSCLC, in the assay on NCI-H460 lung and with TK-10 renal was more than 100 µM in each case. Further, the TGI with SK-MEL-28 melanoma, with SW-620 colon, with 786-0 renal and in the assay on SF-295 CNS was more than 100 µM in each case.
Turning to `O=c1[nH]ncc(Br)c1Br`, the GI50 in the assay with HOP-62 NSCLC is 5.65 µM; in the assay with CAKI-1 renal, 1.44 µM; in the assay with M14 melanoma, 2.09 µM; in the assay with EKVX NSCLC, 2.87 µM; with NCI-H460 lung, 13.1 µM; in the assay on TK-10 renal, 3.45 µM. The GI50 was 1.74 µM in the assay with SK-MEL-28 melanoma, 1.7 µM with SW-620 colon, 4.08 µM in the assay with 786-0 renal and 8.8 µM in the assay on SF-295 CNS. Besides, the TGI in the assay with HOP-62 NSCLC came to 18.1 µM; in the assay with CAKI-1 renal, 2.74 µM; in the assay with M14 melanoma it was 4.23 µM; in the assay on EKVX NSCLC, 13.1 µM; in the assay on NCI-H460 lung, 27.4 µM; with TK-10 renal, 10.7 µM. For the same molecule, the TGI in the assay with SK-MEL-28 melanoma was 3.12 µM; in the assay on SW-620 colon it was 3.07 µM; in the assay with 786-0 renal it was 14.1 µM; in the assay on SF-295 CNS, 22.5 µM.
On to `CC1(C)OC2[C@@H](CNC(=O)NC(=O)NC(=O)CI)O[C@@H](n3cnc4c(NC(=O)Nc5ccccc5)ncnc43)[C@H]2O1` (stereo partly drawn), for which the GI50 in the assay with HOP-62 NSCLC was more than 50 µM; in the assay with CAKI-1 renal it was 0.79 µM; with M14 melanoma, 6.95 µM; with EKVX NSCLC it was 28.4 µM; in the assay with NCI-H460 lung, 27 µM; in the assay on TK-10 renal, 8.59 µM. Moreover, the GI50 was 8.53 µM in the assay with SK-MEL-28 melanoma, 2.08 µM in the assay with SW-620 colon, 7.47 µM in the assay with 786-0 renal and 9.18 µM in the assay on SF-295 CNS. For the same molecule, the TGI with HOP-62 NSCLC is more than 50 µM; with CAKI-1 renal, 1.56 µM; in the assay with M14 melanoma, 14.3 µM; in the assay with EKVX NSCLC, more than 50 µM; in the assay with NCI-H460 lung, more than 50 µM; in the assay with TK-10 renal it was 15.5 µM. Also, the TGI with SK-MEL-28 melanoma turned out to be 16 µM; with SW-620 colon, 8.13 µM; in the assay on 786-0 renal, 14.4 µM; in the assay with SF-295 CNS, 19.4 µM.
As to `COc1cc(C2NC(=O)c3ccccc3N2)ccc1OCCCCCOc1c(OC)cc(C2=NOC(c3cc(OC)c(OC)c(OC)c3)C2)cc1OC` (stereo not drawn), the GI50 with HOP-62 NSCLC is 17.3 µM; in the assay on CAKI-1 renal, more than 42.4 µM; with M14 melanoma, 20.4 µM; in the assay on EKVX NSCLC it was 0.365 µM; in the assay on NCI-H460 lung it was 14.2 µM; with TK-10 renal, more than 100 µM. For the same molecule, the GI50 in the assay on SK-MEL-28 melanoma was 4.13 µM; with SW-620 colon, 14.7 µM; with 786-0 renal it was 27.4 µM; in the assay with SF-295 CNS, 2.54 µM. For the same molecule, the TGI was 61.3 µM in the assay on HOP-62 NSCLC; more than 100 µM in the assay on CAKI-1 renal; more than 93 µM in the assay on M14 melanoma; more than 100 µM in the assay with EKVX NSCLC; 67.2 µM in the assay with NCI-H460 lung; more than 100 µM in the assay with TK-10 renal. Also, the TGI was more than 100 µM in the assay on SK-MEL-28 melanoma, more than 100 µM with SW-620 colon, more than 78.7 µM with 786-0 renal and more than 100 µM in the assay with SF-295 CNS.
`CC[C@@H]1C(=O)N(C)c2cnc(Nc3ccc(C(=O)NC4CCN(C)CC4)cc3OC)nc2N1C1CCCC1`: the GI50 was 0.00533 µM and < 0.01 µM in the assay with HOP-62 NSCLC; 0.297 µM and 0.476 µM with CAKI-1 renal; 0.00384 µM and < 0.01 µM with M14 melanoma; 0.0263 µM and 0.161 µM with EKVX NSCLC; 0.00386 µM and < 0.01 µM in the assay with NCI-H460 lung; 0.285 µM and 0.123 µM with TK-10 renal. Besides, the GI50 in the assay on SW-620 colon is 0.00299 µM and < 0.01 µM; in the assay on 786-0 renal, 0.025 µM and 0.0451 µM; in the assay on SF-295 CNS, 0.0147 µM and 0.0189 µM. In addition, the TGI in the assay on HOP-62 NSCLC is > 10 µM and 6.35 µM; in the assay on CAKI-1 renal, > 10 µM and 13.6 µM; in the assay on M14 melanoma, > 4.22 µM and 2.37 µM; in the assay on EKVX NSCLC, > 10 µM and 21.5 µM; in the assay on NCI-H460 lung, > 10 µM and 6.64 µM; in the assay on TK-10 renal, > 7.36 µM and 5.56 µM. Further, the TGI was 3.32 µM and 2.59 µM in the assay on SK-MEL-28 melanoma; > 10 µM and 3.1 µM in the assay with SW-620 colon; 1.62 µM and 3.98 µM in the assay with 786-0 renal; > 10 µM and 15 µM in the assay on SF-295 CNS.
In the case of `COc1cc([N+](=O)[O-])cc2c3c(n(C)c12)[C@@]1(C)CCC2c4ccc(OCc5ccccc5)cc4CCC2C1C3` (stereo partly drawn), the GI50 in the assay with HOP-62 NSCLC was 43.7 µM; in the assay on CAKI-1 renal, 86.6 µM; in the assay on M14 melanoma it was more than 100 µM; in the assay with EKVX NSCLC, 68.5 µM; in the assay with NCI-H460 lung, 90.1 µM; in the assay on TK-10 renal it was 86 µM. In addition, the GI50 in the assay on SK-MEL-28 melanoma is more than 100 µM; in the assay on SW-620 colon it was 90.6 µM; in the assay with 786-0 renal it was more than 100 µM; in the assay on SF-295 CNS it was 35 µM. The TGI with HOP-62 NSCLC, in the assay on CAKI-1 renal, in the assay with M14 melanoma, with EKVX NSCLC, with NCI-H460 lung and in the assay with TK-10 renal was more than 100 µM throughout. For the same molecule, the TGI in the assay on SK-MEL-28 melanoma, in the assay on SW-620 colon, in the assay on 786-0 renal and in the assay on SF-295 CNS was more than 100 µM in each case.
